From PMC11472058, “Trinucleotide cap analogs with triphosphate chain modifications: synthesis, properties, and evaluation as mRNA capping reagents” (Nucleic Acids Research, 2024) come the findings set out here.

The test system of the experiment is C57BL/6 mice. Put plainly: In vivo translation efficacy of hEPO-encoding mRNA-LNPs (serum hEPO ELISA). As to conditions: 1 μg mRNA i.v., 4, 8, 24 and 48 h. Here is the method: Two reporters were selected to determine in vivo protein production: firefly luciferase (FLuc) and human erythropoietin (hEPO). The mRNA encoding each gene was obtained by IVT using T7 RNA polymerase for co-transcriptional capping with m^7Gppp^5′SAmpG and m^7GpppAmpG as the reference cap structure. 500 μl or 1000 μl of the IVT mix (for obtaining mRNA encoding hEPO or FLuc, respectively) contained following components at indicated final concentration: transcription buffer with 2 mM spermidine and Bis-Tris pH 6.5, 1 U/μl RNase inhibitor (RiboLock, ThermoFisher Scientific), 5 mM ATP, CTP and UTP, 4 mM GTP, 10 mM DTT, 25 mM MgCl2, 0.002 U/μl inorganic pyrophosphatase (ThermoFisher Scientific), 10 mM m^7GpppAmpG or m^7Gppp^5’SAmpG, 40 ng/μl linearized plasmid as the DNA template and 0.125 μg/μl T7 RNA polymerase (in-house prepared). All components were gently mixed by pipetting and incubated for one hour at 37°C. After DNA template removal, obtained mRNA was initially purified using oligo(dT)25 resin, as previously described, and concentrated by ultrafiltration (Amicon Ultra-15 50K or 100K, Millipore) prior loading on preparative column. […] Eluate quality was analyzed on 1 × TBE 1.2% agarose gel, and the fractions containing mRNA of the highest purity were combined, desalted by ultrafiltration (Amicon Ultra-15 50K or 100K, Millipore), and precipitated. […]
In general terms: ELISA stands for enzyme-linked immunosorbent assay.

For the molecule `CO[C@@H]1[C@H](OP(=O)(O)OC[C@H]2O[C@@H](n3cnc4c(=O)[nH]c(N)nc43)[C@H](O)[C@@H]2O)[C@@H](CSP(=O)([O-])OP(=O)(O)OP(=O)(O)OC[C@H]2O[C@@H](n3c[n+](C)c4c(O)nc(N)nc43)[C@H](O)[C@@H]2O)O[C@H]1n1cnc2c(N)ncnc21` [Compound 8, m^7Gppp^5’SAmpG], the “serum hEPO protein expression versus m^7GpppAmpG-capped mRNA (in words)” value is, setting by setting: (MC3 LNP) “slight increase in protein expression”; (SM-102 LNP) “no significant differences”.
